The source of these data is ChEMBL document CHEMBL3507680, “University of Dundee, Gates Library screen for HepG2 cell viability”.

A short description of this data set: Human HepG2 cell viability assay in 384 well format. The data set is classed as toxicity, cell-based. The arrangement: dose 125 nL, time 70.5 hour; concentration not given beside the values. The conditions noted are these: HepG2 cells, read-out: Inhibition.

For the molecule `Cc1cc(CN2CCOC(C)(C(=O)N3CCOCC3)C2)no1` (stereo not given), the cytotoxicity at 70.5 h was -2.61%.

Take `CC1(C(=O)N2CCOCC2)CN(Cc2cccnc2)CCO1` (stereo not given): the cytotoxicity at 70.5 h was -8.77%.

`CN(C)C(=O)C1CN(Cc2ccsc2)CCN(S(C)(=O)=O)C1` (stereo not given): the cytotoxicity at 70.5 h is -6.36%.

For `CN(C)C(=O)C1CN(Cc2ccccn2)CCN(S(C)(=O)=O)C1` (stereo not given), the cytotoxicity at 70.5 h is -3.97%.

With `NC(=O)C1(CCCc2ccncc2)CCCN1` (stereo not given), the cytotoxicity at 70.5 h is -3.08%.

`CN1CCC(c2cncc(N(C)C)n2)CC1`: the cytotoxicity at 70.5 h is -4.58%.

As for `O=c1[nH]c(N2CCCCC2)nc2c1CCN(Cc1cccnc1)C2`, the cytotoxicity at 70.5 h was -6.55%.

For the molecule `Cc1cc(-c2cnc(NC3CCCCC3)nc2-c2ccco2)on1`, the cytotoxicity at 70.5 h was -9.46%.

As for `Cc1c(C(=O)N2CCCC(n3nnc4cc(F)ccc43)C2)cnn1C` (stereo not given), the cytotoxicity at 70.5 h is -14.1%.

Regarding `C=Cn1cc(CN2CCc3nc(-c4cccnc4)nc(O)c3C2)c(C)n1`, the cytotoxicity at 70.5 h was -3.49%.

In the case of `Cc1cc(-c2cnc(NCc3ccncc3)nc2C(C)C)on1`, the cytotoxicity at 70.5 h was found to be 2.62%.

Turning to `O=c1[nH]c(-c2ccccn2)nc2c1CCN(Cc1cccc(O)c1)C2`, the cytotoxicity at 70.5 h was -4.95%.

Consider `COc1ccc(CN2CCc3c(nc(-c4ccccn4)[nH]c3=O)C2)cc1`, for which the cytotoxicity at 70.5 h is 13.1%.

For the molecule `Cn1cccc1CN1CCc2c(nc(-c3ccccn3)[nH]c2=O)C1`, the cytotoxicity at 70.5 h was -2.89%.

Consider `Cc1occc1-c1nc(NC2CCCC2)ncc1-c1ccccn1`, for which the cytotoxicity at 70.5 h is 1.09%.

Consider `Cn1cc(CN2CCCC(CCCc3ccccn3)(C(N)=O)C2)cn1` (stereo not given), for which the cytotoxicity at 70.5 h is -8.02%.

Consider `CN(C)C(=O)CN1CCC(c2cccc(Cc3ccc(F)cc3)n2)CC1`, for which the cytotoxicity at 70.5 h was found to be 15.8%.

`CCCC(=O)N1CCN(Cc2cc(-c3ccncc3)nn2C)CC1`: the cytotoxicity at 70.5 h turned out to be 0.205%.

As to `CCC(CC)C(=O)N1CCN(Cc2cc(-c3ccncc3)nn2C)CC1`, the cytotoxicity at 70.5 h worked out at 1.08%.

Turning to `O=C(CC1CCCC1)N1CCOC(c2nc(-c3ncccn3)no2)C1` (stereo not given), the cytotoxicity at 70.5 h is -1.63%.

`Cc1noc2nc(C3CCCN(Cc4cccnc4)C3)cc(C(F)F)c12` (stereo not given): the cytotoxicity at 70.5 h was -3.71%.

Turning to `O=C(C1CCCC1)N1CCCC(c2nc(O)cc(-c3ccncc3)n2)C1` (stereo not given), the cytotoxicity at 70.5 h turned out to be 5.93%.

On to `CNC(=O)Nc1cnc2cc(Cl)ccc2c1O`, for which the cytotoxicity at 70.5 h came to 10%.

Turning to `OC1(Cn2ccc3ncccc32)CCN(Cc2cccs2)CC1`, the cytotoxicity at 70.5 h was -0.455%.

Turning to `Cc1cc(CN2CCC(O)(Cn3ccc4ncccc43)CC2)c(C)s1`, the cytotoxicity at 70.5 h is 4.82%.

With `Cc1ccc(=O)n(CC2(O)CCN(Cc3cnc(N(C)C)nc3)CC2)n1`, the cytotoxicity at 70.5 h turned out to be 17.6%.

On to `O=C(c1ccncc1)N1CCCC(c2cc(C(F)F)n3ncnc3n2)C1` (stereo not given), for which the cytotoxicity at 70.5 h was -3.18%.

As to `O=C(c1ccccn1)N1CCCC(c2cc(C(F)F)n3ncnc3n2)C1` (stereo not given), the cytotoxicity at 70.5 h is -4.56%.

For the molecule `CC1CCCN(Cc2c(C3CC3)[nH]c3ncccc23)C1` (stereo not given), the cytotoxicity at 70.5 h was -4.53%.

As to `Cc1cc(-c2cnc(NC3CCCC3)nc2-c2ccoc2)on1`, the cytotoxicity at 70.5 h was -2.38%.

`Cc1ccc([C@]2(O)CC[C@H]3CN(Cc4ccncc4)C[C@H]32)nc1`: the cytotoxicity at 70.5 h came out at 36%.

With `Cc1ccc([C@]2(O)CC[C@H]3CN(Cc4cccnc4)C[C@H]32)nc1`, the cytotoxicity at 70.5 h was determined as 9.25%.

Take `O=C(c1ccco1)N1CCCC(c2cc(C(F)(F)F)n3ncnc3n2)C1` (stereo not given): the cytotoxicity at 70.5 h is 28.3%.

For `c1cnc2[nH]c(C3CCCC3)c(CN3CCOCC3)c2c1`, the cytotoxicity at 70.5 h is -9.59%.

For `COc1ccc(C2CCCN2c2cnc3ccccc3n2)c(OC)c1` (stereo not given), the cytotoxicity at 70.5 h was -4.21%.

For `COc1cccc(CCNC(=O)c2ccc(=O)n(C)c2)c1`, the cytotoxicity at 70.5 h is -2.94%.

On to `N#Cc1cnc(NCc2cccc(C(=O)N3CCCC3)c2)c(Cl)c1`, for which the cytotoxicity at 70.5 h is -1.9%.

Regarding `Cc1ccc(N2CCCN(C(=O)c3cc(CC(C)C)n[nH]3)CC2)nn1`, the cytotoxicity at 70.5 h is 12.9%.

For `COCCn1nc(C(=O)N2CCN(C)CC2C)ccc1=O` (stereo not given), the cytotoxicity at 70.5 h was -4.08%.

Regarding `CC(=O)NC1CCN(C(=O)Nc2cccc(C(F)(F)F)c2)CC1`, the cytotoxicity at 70.5 h stood at 20.6%.

Consider `Cc1ccc(C)c(Oc2ccc(CNC(=O)C3CNC(=O)N3)cn2)c1` (stereo not given), for which the cytotoxicity at 70.5 h was -1.21%.

`O=C(Nc1ccc(-c2csnn2)cc1)N1CC[C@H](O)C1`: the cytotoxicity at 70.5 h was -13.4%.

For the molecule `COc1cccc(-c2ccc(CNC(=O)c3ccc(=O)n(C)c3)cc2)c1`, the cytotoxicity at 70.5 h came to 6.19%.

As for `CNC(=O)NCCc1csc2ccccc12`, the cytotoxicity at 70.5 h is -0.00639%.

Turning to `O=C(NCC1CCN(CCc2ccccc2)C1)NCC1(O)CCC1` (stereo not given), the cytotoxicity at 70.5 h is -3.77%.

As to `CCOc1cccc(CCNC(=O)NC2CCc3[nH]ncc3C2)n1` (stereo not given), the cytotoxicity at 70.5 h amounted to 24.3%.

For the molecule `CS(=O)(=O)c1cccc(Cl)c1C(=O)NCCN1C(=O)CCC1=O`, the cytotoxicity at 70.5 h was found to be 16.3%.

Consider `COc1ccncc1NC(=O)C1(c2ccccc2)CC1`, for which the cytotoxicity at 70.5 h is -8.43%.

Turning to `CN(CCCOc1ccccc1)Cc1nccn1C`, the cytotoxicity at 70.5 h was -4.56%.

For the molecule `Cc1nc(CNCc2ccc(N3CCC(CO)CC3)nc2)cs1`, the cytotoxicity at 70.5 h was -1.44%.

`CC(=O)N1CCC(C(=O)N(CC(F)F)c2cccc(Cl)c2)CC1`: the cytotoxicity at 70.5 h is 0.334%.

Regarding `NC(=O)C(NC(=O)CSCc1ccc(Cl)s1)c1ccccc1` (stereo not given), the cytotoxicity at 70.5 h was -1.53%.

As to `O=C(Nc1cccnc1)C1=Cc2ccccc2OC1`, the cytotoxicity at 70.5 h was found to be 7.74%.

Consider `CCC(C)NC(=O)CS(=O)(=O)Cc1ccccc1Cl` (stereo not given), for which the cytotoxicity at 70.5 h was -7.35%.

For the molecule `CNC(=O)C1CCCCN1C(=O)c1csc(-c2ccc(C)cc2)n1` (stereo not given), the cytotoxicity at 70.5 h is -9.54%.

On to `COc1cccc(COC(C)C(=O)N(C)Cc2nnc3n2CCC3)c1` (stereo not given), for which the cytotoxicity at 70.5 h was -3.46%.

Consider `CC(C)N(C)CCCNC(=O)c1cnn(C(C)C)c1C(F)(F)F`, for which the cytotoxicity at 70.5 h was 13.9%.

For the molecule `O=S1(=O)CCC(c2nnc(-c3cnc4onc(C5CCCC5)c4c3)o2)C1` (stereo not given), the cytotoxicity at 70.5 h was determined as 20.9%.

Turning to `COc1nc(N2CCNCC2)ncc1Br`, the cytotoxicity at 70.5 h is -9.1%.

Turning to `CNC(=O)Cc1noc(-c2cc3c(s2)CCCC3)n1`, the cytotoxicity at 70.5 h is -8.17%.

As to `Cc1cccc2nc(CN3CCC(Cn4ccnn4)CC3)cc(=O)n12`, the cytotoxicity at 70.5 h is -3.54%.

`CC(C)(C)C(=O)N1CCCN(c2ncnc3nc(N)ccc23)CC1`: the cytotoxicity at 70.5 h was -1.35%.

`CC(C)OCCC1CCCCN1S(C)(=O)=O` (stereo not given): the cytotoxicity at 70.5 h is -8.81%.

On to `CCN(CC)S(=O)(=O)NC(C)C(=O)N(C)C` (stereo not given), for which the cytotoxicity at 70.5 h was 0.169%.

`Fc1cccc(C(NCc2ncc[nH]2)c2ccccn2)c1` (stereo not given): the cytotoxicity at 70.5 h was -6.19%.

Consider `Clc1cccc(C(NCc2ncc[nH]2)c2ccccn2)c1` (stereo not given), for which the cytotoxicity at 70.5 h stood at 1.18%.

Consider `COc1ccc(CNC(=O)N2CCc3sccc3C2)cc1O`, for which the cytotoxicity at 70.5 h was -10.2%.

For the molecule `O=C(Cn1nc(-c2ccc(F)cc2)oc1=O)NCC1CCCO1` (stereo not given), the cytotoxicity at 70.5 h was -3.49%.

As for `CN(CC(=O)N1CCCC1)C(=O)c1ccccc1F`, the cytotoxicity at 70.5 h was -13.9%.

On to `Cc1noc(CNc2cc3c(cc2Cl)OCCCO3)n1`, for which the cytotoxicity at 70.5 h was -14.8%.

`CS(=O)(=O)NCCC(=O)Nc1ccccc1N1CCc2ccccc21`: the cytotoxicity at 70.5 h is -22.1%.

As to `CCN(Cc1cc(Br)ccc1F)C(=O)C(C)NC(N)=O` (stereo not given), the cytotoxicity at 70.5 h was -19.1%.

Regarding `Cc1nc(Cn2cnc3c(c(Br)nn3C)c2=O)cs1`, the cytotoxicity at 70.5 h turned out to be 11.6%.

Take `Cc1nnc(CN(C)CCc2nc(-c3cccc(Cl)c3)no2)n1C`: the cytotoxicity at 70.5 h was -13.1%.

Take `N#CCCN(CC(=O)Nc1ccc(Br)cc1Cl)Cc1cccnc1`: the cytotoxicity at 70.5 h was -1.52%.

On to `N#Cc1cc(F)ccc1NCC1CCN(S(=O)(=O)C(F)F)CC1`, for which the cytotoxicity at 70.5 h was -14.3%.

In the case of `O=C(CCC(F)(F)F)NCC1CCCS1` (stereo not given), the cytotoxicity at 70.5 h is -6.67%.

In the case of `CC(NC(N)=O)C(=O)NCc1cc(Br)ccc1F` (stereo not given), the cytotoxicity at 70.5 h is -7.15%.

On to `Cc1nc(NS(=O)(=O)c2ccc(F)c(Br)c2)no1`, for which the cytotoxicity at 70.5 h was -2.96%.

With `Cc1cc(F)cc(S(=O)(=O)Nc2noc(C)n2)c1`, the cytotoxicity at 70.5 h was -1.08%.

Turning to `O=c1oc(-c2ccc(F)cc2)nn1CC1CCCCO1` (stereo not given), the cytotoxicity at 70.5 h is -3.87%.

With `O=C(CN1CCCC(c2ncc[nH]2)C1)NCCCN1CCCCCC1=O` (stereo not given), the cytotoxicity at 70.5 h is -10.5%.

Consider `CCc1noc(CNc2cc3c(cc2Cl)OCCO3)n1`, for which the cytotoxicity at 70.5 h was determined as 15.1%.

As to `COC(=O)C1CCCN1C(=O)c1ccc(Br)cc1F` (stereo not given), the cytotoxicity at 70.5 h was found to be 12.6%.

Take `CCn1c(C)cc(C(=O)N2CCC(NC(=O)c3cc(C)no3)CC2)c1C`: the cytotoxicity at 70.5 h is -112%.

With `O=C(CNc1cc(-n2cnnn2)ccc1F)Nc1ccccc1Cl`, the cytotoxicity at 70.5 h is -114%.

With `Cc1ccccc1CC(=O)NS(=O)(=O)c1cccc2cnccc12`, the cytotoxicity at 70.5 h was -40.8%.

Take `NC(=O)CCCNC(=O)Cc1csc(Cc2ccccn2)n1`: the cytotoxicity at 70.5 h was -135%.

With `Cc1nc(-c2ccco2)ccc1C(=O)NCCC(=O)N1CCCCC1`, the cytotoxicity at 70.5 h was -103%.

As for `Cc1nc(-c2ccco2)ccc1C(=O)NCCN1CCN(C)CC1`, the cytotoxicity at 70.5 h was -114%.

For the molecule `N#Cc1c(F)cccc1Nc1cnn(CC(N)=O)c1`, the cytotoxicity at 70.5 h was -112%.

Turning to `COC(C)Cc1nc(-c2cnn3c(C)cc(C)nc23)no1` (stereo not given), the cytotoxicity at 70.5 h is -97.5%.

Consider `COCCN1CCN(Cc2c(C3CCNCC3)[nH]c3ncccc23)CC1`, for which the cytotoxicity at 70.5 h was -2.48%.

Take `c1cnc2c(c1)cc([C@@H]1CCCO1)n2CCN1CCOCC1`: the cytotoxicity at 70.5 h amounted to 0.0365%.

`Cc1ccc(CNCc2ccc(N3CCC(CO)CC3)nc2)c(C)c1`: the cytotoxicity at 70.5 h was -5.56%.

In the case of `Cc1ccc(CN(Cc2ncc[nH]2)C2CC(C)(C)NC(C)(C)C2)o1`, the cytotoxicity at 70.5 h turned out to be 9.13%.

As to `Cc1ccc([C@]2(O)CC[C@H]3CN(Cc4cccc(F)c4F)C[C@H]32)nc1`, the cytotoxicity at 70.5 h was found to be 5.11%.

As to `Cc1ccc([C@]2(O)CC[C@H]3CN(Cc4ccccc4F)C[C@H]32)nc1`, the cytotoxicity at 70.5 h was -9.24%.

In the case of `CC(C)C(N)C1=N/C(=C2\N=CN=N2)NO1` (stereo not given), the cytotoxicity at 70.5 h was found to be 5.13%.

`CC(C)CC(N)C1=N/C(=C2\N=CN=N2)NO1` (stereo not given): the cytotoxicity at 70.5 h turned out to be 29.4%.
